Consider three molecules from patent US10265374B2, “Occidiofungin formations and uses thereof” (MISSISSIPPI STATE UNIVERSITY, priority 2014, dated 2019).

Data set [1] can be described thus: Pharmacokinetics of occidiofungin in DOPC or DOPC:DPPG vesicles. The settings on record: for half-life: female, BALB/c. In kind it is in vivo, mice. As for the experimental part:
Entrapment of occidiofungin in vesicles was done using 1,2-Dioleoyl-sn-glycero-3-phosphocholine (DOPC) and 1,2-dipalmitoyl-sn-glycero-3-[phospho-rac-(3-lysyl(1-glycerol))] (DPPG) from Avanti polar lipids. Lipid cake formation and subsequent hydration was done according to the manufacturer's recommendation. Briefly, 20 mg/ml of DOPC in chloroform was placed in a glass beaker and dried by vacuum evaporation to remove the organic solvent. The lipid film formed was hydrated using a 1 μg/μl solution of occidiofungin in 1.5% (2-Hydroxypropyl)-β-cyclodextrin (Alfa Aesar), while maintaining the lipid concentration at 20 mg/ml and the solution was sonicated to form the vesicles. Similarly, DPPG was mixed with DOPC at a ratio of 9:1 (DOPC:DPPG) to make a homogenous lipid mixture at a concentration of 20 mg/ml and the same process of drying and hydration was repeated to make vesicles. Following vesicle formation, estimation of the amount of occidiofungin trapped inside each type of vesicle was done. The mixture containing free and vesicle trapped occidiofungin was passed through a gel filtration column containing Sephadex G-10 beads. The void volume (containing only the vesicle trapped occidiofungin) was collected and occidiofungin extracted using methanol (50% final concentration). Liquid chromatography was done on the extracted sample, and a standard and the concentration of occidiofungin in the extracted sample was estimated by a comparison of peak volumes.
Occidiofungin in DOPC and DOPC-DPPG, at a concentration of 2.5 mg/kg, with ˜1.25 mg/kg entrapped in vesicles, was administered to six female BALB/c mice respectively via intravenous administration. […] The mice were weighed prior to the start of the experiment and every 24 hours post injection (hpi).
Blood was drawn at time points 1 hpi, 3 hpi, 5 hpi, 7 hpi, 9 hpi, 12 hpi, 18 hpi, 24 hpi and 48 hpi. 15 μl of blood was drawn from the lateral saphenous vein of each mouse for the first three time points. Blood from three mice were pooled together and added to 5 μl of 6.4% citric acid to prevent coagulation. From the fourth time point, blood was drawn from the tail vein of the mice. Blood samples were spun down at 13000 rpm for 10 minutes to separate the plasma. The plasma and the blood pellet obtained were stored separately at −20° C. until analysis. The plasma samples were thawed and the occidiofungin was extracted using a final concentration of 50% methanol. The protein precipitate was spun down at 13000 rpm for 10 minutes and the supernatant was used for analysis. Liquid chromatography was done using Acclaim 120 C18 columns (Length: 150 mm; I.D: 2.1 mm; 5 μm) to purify the occidiofungin in the sample. The occidiofungin was then subjected to MS/MS. Fragmentation of the occidiofungin (parent mass 1200 and 1216 Da) was carried out and the fragment of 1068 and 1084 Da m/z, which corresponds to the occidiofungin molecule (A and B forms, respectively) without the xylose sugar, was used for quantification of occidiofungin. A calibration curve constructed using standard concentrations of occidiofungin in plasma was used to analyze the samples obtained from the mice for pharmacokinetics (See FIGS. 6A-6B & 7A-7B).

Data set [2] can be described thus: In vitro toxicity screening (CellTiter-Blue cell viability, 48 hours). Type of data set: cell-based, human. The settings on record: human. The source says: Cancer cell lines, OVCAR8 (Center for Cancer Research (OVAR.8; Sample ID 25)), SW1088 (ATCC-HTB-12), and Toledo (ATCC CRL-2631), and normal human neonatal dermal fibroblasts cell line (ATCC-PCS-201-010) were passaged and prepped as previously described (See References 15-17). OVCAR8, SW1088, and Toledo2631 are ovarian, brain, and B-cell lymphoma cancer cell lines, respectively. This panel of cell lines was chosen based, in part, on their being from very different cancer types in order to discern whether occidiofungin would have a broad spectrum activity towards cancer cell lines of vastly different parental organ/cell types. OVCAR8 cells are widely used in the field of cancer therapeutic research as a panel representative of ovarian cancer in screening experiments for identifying both ovarian-specific and non-specific (i.e., anti-neoplastic activity on multiple cancer cell types) therapeutic agents (See References 28-30). Similarly, SW1088 cells are widely used in the field of cancer therapeutic research as a panel representative of glioma (the most common brain cancer) in screening experiments for identifying both glioma-specific and non-specific therapeutic agents (See References 31-32). Toledo 2631 cells are derived from lymphoma cells, and are used in the field of cancer therapeutic research for identifying lymphoma-specific and non-specific therapeutic agents (See, e.g., Reference 33). […] Cell counts per plate were calculated to be approximately 50,000 cells/mL. A 10× stock solution of occidiofungin was prepared at 65 μM concentration in 10% dimethyl sulfoxide (DMSO). Two-fold serial dilutions on a 96 well plate were set up in triplicate with starting concentration of 6.5 μM and a final concentration of 3 nM. Bortezomib was used as a comparator for toxicity against human fibroblast and was serially diluted two-fold starting at a concentration of 5 μM and ending at 2.5 nM. Bortezomib is used clinically against myeloma and lymphoma cancers in patients refractory against other chemotherapeutics (See References 18, 19). Furthermore, bortezomib has shown efficacy against a variety of solid tumors and cancer cell lines, making this an appropriate comparison molecule in the panel of cell lines chosen (See References 34-35). The plates were then incubated at 37° C. in 5% CO2 for 48 hours. After 48 hours, cell viability was monitored using CellTiter-Blue (Promega) cell viability assay by measuring the fluorescence emission of a redox activated dye (579EX/584EM) using a POLARstar Omega microplate reader (BMG Labtech).

The subject of data set [3] is normal cells with lower metobolism. The following applies: cited from earlier work.

Read-outs that look alike come from different tables or passages of the source. Starred links: 1 amine or outer side, 2 acyl side, 3 side chain; linkers in the order of their positions; H or OH if unused. Positions of bridges follow the written chain, without caps; N, C: chain ends. Non-standard residues stand in square brackets, D forms with d. Residues, ends and D or L forms follow the SMILES beside them. ξ: configuration not given here. X1 = CCCCCCCCCCCC(OC1OCC(O)C(O)C1O)C(O)C(O)CC(CC(=O)[*:1])N[*:2]; ξTyr(βOH) = NC(C(=O)O)C(O)c1ccc(O)cc1; ξAsn(3ξ-OH) = NC(=O)C(O)C(N)C(=O)O; Dab = NCC[CH](N)C(=O)O

As for `CCCCCCCCCCCC(OC1OCC(O)C(O)C1O)C(O)C(O)CC1CC(=O)NC(CO)C(=O)NC(C(O)c2ccc(O)cc2)C(=O)NC(CCN)C(=O)NCC(=O)NC(CC(N)=O)C(=O)NC(CO)C(=O)NC(C(O)C(N)=O)C(=O)N1` (stereo not drawn) [OCFIN-B] (S[ξTyr(βOH)][Dab]GNS[ξAsn(3ξ-OH)]; linker N-C via X1; configuration not given here), in data set [1] (mouse, in vivo, iv, packaged in DOPC:DPPG (90:10) vesicles, 2.5 mg/kg i.v., mice, read-out: t½ (converted)), the half-life is 14.8 h. Also, in data set [1] (packaged in DOPC:DPPG (90:10) vesicles, 2.5 mg/kg i.v., mice), the ke1 came out at 0.0467 h⁻¹.

Take `CCCCCCCCCCCC(OC1OCC(O)C(O)C1O)C(O)C(O)CC1CC(=O)NC(CO)C(=O)NC(C(O)c2ccc(O)cc2)C(=O)NC(CCN)C(=O)NCC(=O)NC(CC(N)=O)C(=O)NC(CO)C(=O)NC(CC(N)=O)C(=O)N1` (stereo not drawn) [OCFIN-A] (S[ξTyr(βOH)][Dab]GNSN; linker N-C via X1; configuration not given here): in data set [1] (mouse, in vivo, iv, 2.5 mg/kg), the half-life is 14.6 h and the ke1 was 0.0474 h⁻¹.

For the molecule `CC(C)C[C@H](NC(=O)[C@H](Cc1ccccc1)NC(=O)c1cnccn1)B(O)O` [Bortezomib, bortezomib, reference compound], the CC50 at 48 h in data set [2] amounted to 4.09 µM. For the same molecule, in data set [3], the “toxicity in normal cells” value is “micromolar range”.
